Measured values taken from patent US9074014B2 (Ipsen Pharma S.A.S., priority 2008, dated 2015).
Where a SMILES comes first, the peptide text is derived from it. Where no end group is shown, it is not given here. [ ]: non-standard residue; d: D form. The star is where a group is joined. Myristoyl = CCCCCCCCCCCCCC(=O)*; Ac6c = NC1(C(=O)O)CCCCC1; Nle = CCCC[C@H](N)C(=O)O; Orn = NCCC[C@H](N)C(=O)O; X1 = CCCN1C(=O)CC(*)C1=O; Ac5c = NC1(C(=O)O)CCCC1; Aib = CC(C)(N)C(=O)O

Key:
[1] = Human plasma half-life assay; format: in vitro ADME; details: human plasma, 37° C., LC-MS; read-out: Human Plasma T½ (converted)
Procedure: (§1) B. Human and Rat Plasma Half-Life Assay
(§2) 50 μL was removed at various times, like at 0, 1, 2, 3, 4, 8, 24, 32, 48, 56, 72 hours, mixed with 5 μL formic acid and 150 μL acetonitrile in a microcentrifuge tube, vertexed, and centrifuged for 10 minutes at 10K rpm. The supernatant was transferred to an injection vial and analyzed by LC-MS. The LC-MS system consisted of an API4000 mass spectrometer with an ESI probe. Positive ion mode and full scan detection were used. HPLC separation was carried out on a Luna 3μ C8 (2), 2×30 mm column with a gradient from 90% A to 90% B in 10 minutes at a flow rate of 0.3 ml/min. Buffer A was 1% formic acid in water and buffer B was 1% formic acid acetonitrile.

[2] = Rat plasma half-life assay; format: in vitro ADME; details: rat plasma, 37° C., LC-MS; for half-life at 0.1 mg/ml: read-out: Rat Plasma T½ (converted)
Procedure: as §1, §2

Row | Compound | half-life at 0.1 mg/ml [1] | half-life at 0.1 mg/ml [2] | half-life [1] | half-life ([2]; read-out: Rat Plasma T½)
1 | Y[Aib]EGTF[Ac6c]SDYSIAMDKIHQQDFVNWLLAQKC(X1)KKNDWKHNITQ-OH [Example 90, [Aib^2, A6c^7, Cys(Psu)^31]hGIP(1-42)-OH] | 11.3 h | 4.8 h |  | 
2 | Y[Aib]EG[Ac5c]FISDYSIAMDKIHQQDFVNWLLAQKGKKNDWKHNITQ-OH [Example 5, (Aib^2, A5c^5)hGIP(1-42)-OH] | > 48 h | 6.1 h |  | 
3 | Y[Aib]EG[Aib]FISDYSIAMDKIHQQDFVNWLLAQKGKKNDWKHNITQ-OH [Example 4, (Aib^2, 5)hGIP(1-42)-OH] | > 48 h | 4.8 h |  | 
4 | Y[Aib]EGTF[Ac6c]SDYSIA[Nle]DKIHQQDFVNWLLAQK[Aib]KKNDWKHNITQ-OH [Example 24, (Aib^2, 31, A6c^7, Nle^14)hGIP(1-42)-OH] | > 48 h | 24.8 h |  | 
5 | Y[Aib]EGTF[Aib]SDYSIAMDKIHQQDFVNWLLAQKGKKNDWKHNITQ-OH [Example 3, (Aib^2, 7)hGIP(1-42)-OH] | > 48 h | 5.5 h |  | 
6 | CCCC[C@H](NC(=O)[C@H](C)NC(=O)[C@@H](NC(=O)[C@H](CO)NC(=O)[C@H](Cc1ccc(O)cc1)NC(=O)[C@H](CC(=O)O)NC(=O)[C@H](CO)NC(=O)C1(NC(=O)[C@H](Cc2ccccc2)NC(=O)[C@@H](NC(=O)CNC(=O)[C@H](CCC(=O)O)NC(=O)C2(NC(=O)[C@@H](N)Cc3ccc(O)cc3)CCCCC2)[C@@H](C)O)CCCCC1)[C@@H](C)CC)C(=O)N[C@@H](CC(=O)O)C(=O)N[C@@H](CCCCN)C(=O)N[C@H](C(=O)N[C@@H](Cc1c[nH]cn1)C(=O)N[C@@H](CCC(N)=O)C(=O)N[C@@H](CCC(N)=O)C(=O)N[C@@H](CC(=O)O)C(=O)N[C@@H](Cc1ccccc1)C(=O)N[C@H](C(=O)N[C@@H](CC(N)=O)C(=O)N[C@@H](Cc1c[nH]c2ccccc12)C(=O)N[C@@H](CC(C)C)C(=O)N[C@@H](CC(C)C)C(=O)N[C@@H](C)C(=O)N[C@@H](CCC(N)=O)C(=O)N[C@@H](CCCCN)C(N)=O)C(C)C)[C@@H](C)CC [Example 36, (A6c^2,7, Nle^14)hGIP(1-30)-NH2] (H-Y[Ac6c]EGTF[Ac6c]SDYSIA[Nle]DKIHQQDFVNWLLAQK-NH2; N-terminus assumed) | 23.7 h | 29.2 h |  | 
7 | CCCC[C@H](NC(=O)[C@H](C)NC(=O)[C@@H](NC(=O)[C@H](CO)NC(=O)[C@H](Cc1ccc(O)cc1)NC(=O)[C@H](CC(=O)O)NC(=O)[C@H](CO)NC(=O)C1(NC(=O)[C@H](Cc2ccccc2)NC(=O)[C@@H](NC(=O)CNC(=O)[C@H](CCC(=O)O)NC(=O)C2(NC(=O)[C@@H](N)Cc3ccc(O)cc3)CCCC2)[C@@H](C)O)CCCC1)[C@@H](C)CC)C(=O)N[C@@H](CC(=O)O)C(=O)N[C@@H](CCCCN)C(=O)N[C@H](C(=O)N[C@@H](Cc1c[nH]cn1)C(=O)N[C@@H](CCC(N)=O)C(=O)N[C@@H](CCC(N)=O)C(=O)N[C@@H](CC(=O)O)C(=O)N[C@@H](Cc1ccccc1)C(=O)N[C@H](C(=O)N[C@@H](CC(N)=O)C(=O)N[C@@H](Cc1c[nH]c2ccccc12)C(=O)N[C@@H](CC(C)C)C(=O)N[C@@H](CC(C)C)C(=O)N[C@@H](C)C(=O)N[C@@H](CCC(N)=O)C(=O)N[C@@H](CCCCN)C(N)=O)C(C)C)[C@@H](C)CC [Example 34, (A5c^2,7, Nle^14)hGIP(1-30)-NH2] (H-Y[Ac5c]EGTF[Ac5c]SDYSIA[Nle]DKIHQQDFVNWLLAQK-NH2; N-terminus assumed) | > 48 h | 23 h |  | 
8 | CC[C@H](C)[C@H](NC(=O)[C@H](CO)NC(=O)[C@H](Cc1ccc(O)cc1)NC(=O)[C@H](CC(=O)O)NC(=O)[C@H](CO)NC(=O)[C@@H](NC(=O)[C@H](Cc1ccccc1)NC(=O)[C@@H](NC(=O)CNC(=O)[C@@H]1Cc2ccccc2CN1C(=O)[C@H](C)NC(=O)[C@@H](N)Cc1ccc(O)cc1)[C@@H](C)O)[C@@H](C)CC)C(=O)N[C@@H](C)C(=O)NC1(C(=O)N[C@@H](CC(=O)O)C(=O)N[C@@H](CCCCN)C(=O)N[C@H](C(=O)N[C@@H](Cc2c[nH]cn2)C(=O)N[C@@H](CCC(N)=O)C(=O)N[C@@H](CCC(N)=O)C(=O)N[C@@H](CC(=O)O)C(=O)N[C@@H](Cc2ccccc2)C(=O)N[C@H](C(=O)N[C@@H](CC(N)=O)C(=O)N[C@@H](Cc2c[nH]c3ccccc23)C(=O)N[C@@H](CC(C)C)C(=O)N[C@@H](CC(C)C)C(=O)N[C@@H](C)C(=O)N[C@@H](CCC(N)=O)C(=O)N[C@@H](CCCCN)C(=O)NCC(=O)N[C@@H](CCCCN)C(=O)N[C@@H](CCCCN)C(=O)N[C@@H](CC(N)=O)C(=O)N[C@@H](CC(=O)O)C(=O)N[C@@H](Cc2c[nH]c3ccccc23)C(=O)N[C@@H](CCCCN)C(=O)N[C@@H](Cc2c[nH]cn2)C(=O)N[C@@H](CC(N)=O)C(=O)N[C@H](C(=O)N[C@H](C(=O)N[C@@H](CCC(N)=O)C(=O)O)[C@@H](C)O)[C@@H](C)CC)C(C)C)[C@@H](C)CC)CCCCC1 [Example 71, (Tic^3, A6c^14)hGIP(1-42)-OH] | > 31 h | 4.8 h |  | 
9 | CC[C@H](C)[C@H](NC(=O)[C@H](CCCCN)NC(=O)[C@H](CC(=O)O)NC(=O)[C@H](CCSC)NC(=O)[C@H](C)NC(=O)C1(NC(=O)[C@H](CO)NC(=O)[C@H](Cc2ccc(O)cc2)NC(=O)[C@H](CC(=O)O)NC(=O)[C@H](CO)NC(=O)[C@@H](NC(=O)[C@H](Cc2ccccc2)NC(=O)[C@@H](NC(=O)CNC(=O)[C@H](CCC(=O)O)NC(=O)C(C)(C)NC(=O)[C@@H](N)Cc2ccc(O)cc2)[C@@H](C)O)[C@@H](C)CC)CCCC1)C(=O)N[C@@H](Cc1c[nH]cn1)C(=O)N[C@@H](CCC(N)=O)C(=O)N[C@@H](CCC(N)=O)C(=O)N[C@@H](CC(=O)O)C(=O)N[C@@H](Cc1ccccc1)C(=O)N[C@H](C(=O)N[C@@H](CC(N)=O)C(=O)N[C@@H](Cc1c[nH]c2ccccc12)C(=O)N[C@@H](CC(C)C)C(=O)N[C@@H](CC(C)C)C(=O)N[C@@H](C)C(=O)N[C@@H](CCC(N)=O)C(=O)N[C@@H](CCCCN)C(N)=O)C(C)C [Example 13, (Aib^2, A5c^12)hGIP(1-30)-NH2] (H-Y[Aib]EGTFISDYS[Ac5c]AMDKIHQQDFVNWLLAQK-NH2; N-terminus assumed) | 35.4 h | > 48 h |  | 
10 | Y[Ac5c]EGTF[Ac5c]SDYSIA[Ac6c]DKIHQQDFVNWLLAQKGKKNDWKHNITQ-OH [Example 56, (A5c^2,7, A6c^14)hGIP(1-42)-OH] | 16 h | 9.2 h |  | 
11 | Y[Aib]EGTF[Ac5c]SDYSIAMDKIHQQDFVNWLLAQKGKKNDWKHNITQ-OH [Example 6, (Aib^2, A5c^7)hGIP(1-42)-OH] | > 48 h | 8.6 h |  | 
12 | CC[C@H](C)[C@H](NC(=O)[C@H](CCCCN)NC(=O)[C@H](CC(=O)O)NC(=O)[C@H](CCSC)NC(=O)[C@H](C)NC(=O)[C@@H](NC(=O)C1(NC(=O)[C@H](Cc2ccc(O)cc2)NC(=O)[C@H](CC(=O)O)NC(=O)[C@H](CO)NC(=O)[C@@H](NC(=O)[C@H](Cc2ccccc2)NC(=O)[C@@H](NC(=O)CNC(=O)[C@@H]2CCCN2C(=O)[C@H](C)NC(=O)[C@@H](N)Cc2ccc(O)cc2)[C@@H](C)O)[C@@H](C)CC)CCCC1)[C@@H](C)CC)C(=O)N[C@@H](Cc1c[nH]cn1)C(=O)N[C@@H](CCC(N)=O)C(=O)N[C@@H](CCC(N)=O)C(=O)N[C@@H](CC(=O)O)C(=O)N[C@@H](Cc1ccccc1)C(=O)N[C@H](C(=O)N[C@@H](CC(N)=O)C(=O)N[C@@H](Cc1c[nH]c2ccccc12)C(=O)N[C@@H](CC(C)C)C(=O)N[C@@H](CC(C)C)C(=O)N[C@@H](C)C(=O)N[C@@H](CCC(N)=O)C(=O)N[C@@H](CCCCN)C(=O)NCC(=O)N[C@@H](CCCCN)C(=O)N[C@@H](CCCCN)C(=O)N[C@@H](CC(N)=O)C(=O)N[C@@H](CC(=O)O)C(=O)N[C@@H](Cc1c[nH]c2ccccc12)C(=O)N[C@@H](CCCCN)C(=O)N[C@@H](Cc1c[nH]cn1)C(=O)N[C@@H](CC(N)=O)C(=O)N[C@H](C(=O)N[C@H](C(=O)N[C@@H](CCC(N)=O)C(=O)O)[C@@H](C)O)[C@@H](C)CC)C(C)C [Example 77, (Pro^3, A5c^11)hGIP(1-42)-OH] | 43.3 h | 1.5 h |  | 
13 | Y[Aib]EGTF[Ac6c]SDYSIA[Nle]DKIHQQDFVNWLLAQKGKKNDWKHN[Ac6c]TQ-OH [Example 28, (Aib^2, A6c^7, 40, Nle^14)hGIP(1-42)-OH] | > 48 h | 11.6 h |  | 
14 | [Orn](Myristoyl)AEGTF[Ac6c]SDYSIAMDKIHQQDFVNWLLAQKGKKNDWKHNITQ-OH [Example 103, [Orn^1(N—C(O)—(CH2)12—CH3), A6c^7]hGIP(1-42)-OH] |  |  | 6.8 h | > 72 h
15 | Y[Aib]EGTF[Ac6c]SDYSIAMDKIHQQDFVNWLLAQKGKKNDWKHC(X1)ITQ-OH [Example 79, [Aib^2, A6c^7, Cys(Psu)^39]hGIP(1-42)-OH] |  | 14.3 h |  | 
